Measured values: patent publication US5750782A, “Nitroaniline derivatives and their use as anti-tumour agents” (priority 1996, dated 1998)
Like-named read-outs stand apart in the source and are kept apart here.

Tests used:
[1] = test system: bacterial nitroreductase enzymes; details: PCT/GB92/01947; cited from earlier work
EC.1.6.99.2 = details: Walker cell enzyme; cited from earlier work
other tumours = details: cited from earlier work
Walker tumour cells = details: in vivo or in vitro; cited from earlier work
[2] = product of CB 1954 reduction by Walker cell enzyme; cited from earlier work
AA8 = test: Growth inhibition (IC50), AA8 cells, aerobic; type: cell-based; details: air, 18 h exposure
Procedure: (§1) Growth inhibition studies were performed as described in detail elsewhere (W.R. Wilson, R.F. Anderson and W.A Denny. J Med. Chem., 1989, 32, 23; G.J. Finlay, B.C. Baguley and W.R. Wilson. Anal Biochem., 1984, 139, 172.), using 200 viable AA8 or 300 viable UV4 cells plus 5000 lethally-irradiated AA8 feeder cells per well in 96-well tissue culture dishes. AA8 and UV4 cells were maintained in logarithmic-phase growth in […] tissue culture flasks with subculture twice weekly by trypsinization. The growth medium was antibiotic-free α-MEM with 10% v/v heat-inactivated ([…], 40 min) fetal calf serum. Doubling times were approximately 14h for AA8 and 15h for UV4 cells.

V79 cells [3] = details: 2 h, 37° C
Procedure: (§3) The nitroreductase concentration was 2 μg/ml and NADH was used as a co-factor. The initial cell density was 2×10^5 /mL.

[4] = target: T1, B. amyloliquifaciens nitroreductase (Bacillus amyloliquefaciens, UniProt Q8VSR5); test: Drug reduction by the B. amyloliquifaciens nitroreductase; type: biochemical; details: 120 min
T1 sequence (Q8VSR5 1-174): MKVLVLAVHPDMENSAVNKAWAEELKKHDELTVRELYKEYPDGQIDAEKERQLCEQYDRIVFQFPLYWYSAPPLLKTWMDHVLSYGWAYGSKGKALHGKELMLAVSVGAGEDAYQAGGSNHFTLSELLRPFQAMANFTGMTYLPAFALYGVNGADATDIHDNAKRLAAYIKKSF
Procedure: The nitroreductase concentration was 7.45 μg/ml and NADII was ised as a co-factor.

AA8 and UV4 cell lines = test: Ratio of IC50 values against AA8 and UV4 cell lines (HFair); type: cell-based; details: 18 h exposure
Procedure: as §1
Ratio of IC50 values for a compound after exposure as detailed above against AA8 and UV4 cell lines (HF=IC50 (AA8)/IC50 (UV4)).

[5] = target: T2, E. coli nitroreductase: A5B7 F(ab)2 conjugate (Escherichia coli, UniProt P38489); test: Drug reduction by the E. coli nitroreductase: A5B7 F(ab)2 conjugate; type: biochemical; details: 120 min
T2 construct: A5B7 F(ab)2 antibody fragment (conjugate)
T2 sequence (P38489 1-217): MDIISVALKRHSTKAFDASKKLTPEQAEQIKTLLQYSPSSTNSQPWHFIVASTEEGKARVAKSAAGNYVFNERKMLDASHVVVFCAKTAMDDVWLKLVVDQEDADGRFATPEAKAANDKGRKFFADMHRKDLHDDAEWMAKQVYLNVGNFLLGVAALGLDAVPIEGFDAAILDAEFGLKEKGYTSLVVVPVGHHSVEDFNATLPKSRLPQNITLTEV
Procedure: (§2) The conjugate concentration was 81 μg/ml (euivalent to 5.2 μg/ml nitroreductase) and NADII was used as a co-factor. […] No attempt was made to remove unbound conjugate.

UV4 = test: Growth inhibition (IC50), UV4 cells, aerobic; type: cell-based; details: air, 18 h exposure
Procedure: as §1

E. coli nitroreductase = target: T3, E. coli nitroreductase (Escherichia coli, UniProt P38489); test: Drug reduction by the E. coli nitroreductase; type: biochemical; details: 120 min
T3 sequence (P38489 1-217): T2 sequence (P38489 1-217)

V79 cells [6] = test: Survival of V79 cells in the presence of the B. amyloliquifaciens nitroreductase; type: cell-based; details: 2 h, 37° C
Procedure: The effect of SN23862 on the survival of V79 cells in the preence of the B. amyloliquifaciens nitroreductase. All treatments were for 2 hours at 37° C. and the cells were then plated out for their resulting colony forming ability. […] The initial cell density was 2×10^5 /mL.

MAWI Cells = test: Survival of Mawi cells in the presence of the E. coli nitroreductase: A5B7 F(ab)2 conjugate; type: cell-based; details: 2 h, 37° C
Procedure: as §2

V79 cells [7] = test: Survival of V79 cells in the presence of the E. coli nitroreductase: A5B7 F(ab)2 conjugate; type: cell-based; details: 2 h, 37° C
Procedure: as §2

AA8 cells = test: Radiosensitisation of hypoxic AA8 cells, gamma irradiation; type: cell-based
Procedure: The radiosensitising efficiency of compound 1 has been assessed in stirred suspensions of AA8 cells under hypoxie conditions using gamma irradiation (cobalt 60) at a dose rate of 2.2 Gy/min at 37° C. Drug and cells were mixed under hypoxic conditions 30 min before irradiation.

[8] = test system: bacterial nitroreductase enzymes; test: Reductive activation by bacterial nitroreductase enzymes; type: biochemical, Escherichia coli and Bacillus amyloliquifaciens; details: Examples 1 to 3
UV4 cells = test: Clonogenic assay, UV4 cells (CT10), aerobic and hypoxic; type: cell-based
From the text: The product (in μM-hr) of the drug concentration times the exposure time to reduce cell survival to 10% of control values in the clonogenic assay.
Ratio of CT10 values after exposure of UV4 cells as detailed above under either aerobic (air) or hypoxic (N2) conditions (=aerobic CT10 /hypoxic CT10).

UV4 cell line = test: Ratio of IC50 values against UV4 cell line in presence and absence of E. coli nitroreductase enzyme NTR-2; type: cell-based; details: air, ratio of IC50 in presence and absence of E. coli nitroreductase NTR-2, 1080 min
Procedure: as §1
Ratio of IC50 values for a compound after exposure as detailed above against the UV4 cell line in the presence and absence of the E. coli nitroreductase enzyme NTR-2.

V79 cells [9] = test: Survival of V79 cells in the presence of the E. coli nitroreductase; details: hamster, 2 h
Procedure: as §3

[10] = +CG (81 μg/ml) + SN23862 + 500 μM NADH

Compound: NC(=O)c1cc(N2CC2)c([N+](=O)[O-])cc1[N+](=O)[O-] [CB 1954, 5-(aziridin-1-yl)-2,4-dinitrobenzaride]
- conversion into an active anti-tumour agent by bacterial nitroreductases [1]: capable of converting CB 1954 into an active anti-tumour agents
- reduction of the 4-nitro group to the corresponding hydroxylamine (EC.1.6.99.2): ability to reduce the 4-nitro group of CB 1954
- activity against other tumours (other tumours): virtually inactive
- activity against the Walker tumour cells (Walker tumour cells): considerable activity

Compound: NC(=O)c1cc(N2CC2)c(NO)cc1[N+](=O)[O-] [5-(aziridin-1-yl)-2-nitro-4-hydroxylamino-benzamide]
- anti-tumour activity [2]: active anti-tumour agent

Compound: NC(=O)c1cc(N(CCCl)CCCl)c([N+](=O)[O-])cc1[N+](=O)[O-] [Compound 1, 5-[N,N-bis(2-chloroethyl)amino]-2,4-diritrobenzamide]
- IC50 (AA8): 468 µM
- % SURVIVAL (V79 cells [3]; +50 μM SN23862): 100%
- % SURVIVAL (V79 cells [3]; +NADH + SN23862): 100%
- % SURVIVAL (V79 cells [3]; +NR (2 μg/ml) + 50 μM SN23862): 99%
- % SURVIVAL (V79 cells [3]; +NR (2 μg/ml) + SN23862 + 500 μM NADH): 0.007%
- % DRUG REDUCTION ([4]; +50 μM SN23862): < 1.0%
- % DRUG REDUCTION ([4]; +BA + 50 μM SN23862): < 1.0%
- % DRUG REDUCTION ([4]; +BA + SN23862 + 500 μM NADH): > 95%
- % DRUG REDUCTION ([4]; +NADH + SN23862): < 1.0%
- HF (air) = IC50 (AA8)/IC50 (UV4) (AA8 and UV4 cell lines): 6.8
- % DRUG REDUCTION ([5]; +50 μM SN23862): < 1.0%
- % DRUG REDUCTION ([5]; +CG + 50 μM SN23862): < 1.0%
- % DRUG REDUCTION ([5]; +CG + SN23862 + 500 μM NADH): > 99%
- % DRUG REDUCTION ([5]; +NADH + SN23862): < 1.0%
- IC50 (UV4): 109 µM
- % DRUG REDUCTION (E. coli nitroreductase; +50 μM SN23862): < 1.0%
- % DRUG REDUCTION (E. coli nitroreductase; +NADH + SN23862): < 1.0%
- % DRUG REDUCTION (E. coli nitroreductase; +NR + 50 μM SN23862): < 1.0%
- % DRUG REDUCTION (E. coli nitroreductase; +NR + SN23862 + 500 μM NADH): 95%
- % SURVIVAL (V79 cells [6]; +50 μM SN23862): 110%
- % SURVIVAL (V79 cells [6]; +BA (7.45 μg/ml) + 50 μM SN23862): 110%
- % SURVIVAL (V79 cells [6]; +BA (7.45 μg/ml) + SN23862 + 500 μM NADH): 6.0%
- % SURVIVAL (V79 cells [6]; +NADH + SN23862): 115%
- % SURVIVAL MAWI Cells (MAWI Cells; +50 μM SN23862): 90.9%
- % SURVIVAL MAWI Cells (MAWI Cells; +CG (81 μg/ml) + 50 μM SN23862): 94.6%
- % SURVIVAL MAWI Cells (MAWI Cells; [10]): 0.014%
- % SURVIVAL MAWI Cells (MAWI Cells; +NADH + SN23862): 93.1%
- % SURVIVAL V79 Cells (V79 cells [7]; +50 μM SN23862): 94.3%
- % SURVIVAL V79 Cells (V79 cells [7]; +CG (81 μg/ml) + 50 μM SN23862): 73.5%
- % SURVIVAL V79 Cells (V79 cells [7]; [10]): 0.003%
- % SURVIVAL V79 Cells (V79 cells [7]; +NADH + SN23862): 80.4%
- drug toxicity at this extent of sensitisation (AA8 cells; at C1.6, hypoxic AA8 cells, FIG. 1): absence of drug toxicity
- Radiosensitisation of hypoxic cells (AA8 cells; hypoxic AA8 cells, FIG. 1): Radiosensitisation of hypoxic cells was observed
- C1.6 (concentration for an enhancement ratio of 1.6) (AA8 cells; hypoxic, 10% survival, cobalt 60, 2.2 Gy/min, 37° C, drug 30 min before irradiation): approximately 100 μM
- reductive activation by bacterial nitroreductase enzymes [8]: reductively activated by bacterial nitroreductase enzymes
- CT10 ratio (air/N2) (UV4 cells; UV4 cells, aerobic CT10/hypoxic CT10): 58
- CT10 (UV4) (UV4 cells; air, concentration x time to reduce UV4 cell survival to 10% of control): 2925 μM-h
- hypoxia-selective cytotoxicity (UV4 cells; conclusion in words): hypoxia-selective cytotoxin
- HF (NR-2) (UV4 cell line): 73.5

Compound: NC(=O)C1=CN([C@@H]2O[C@H](COP(=O)(O)OP(=O)(O)OC[C@H]3O[C@@H](n4cnc5c(N)ncnc54)[C@H](O)[C@@H]3O)[C@@H](O)[C@H]2O)C=CC1 [NADH, reference compound]
- % SURVIVAL (V79 cells [6]; +500 μM NADH alone): 120%
- % SURVIVAL MAWI Cells (MAWI Cells; +500 μM NADH alone): 104.6%
- % SURVIVAL V79 Cells (V79 cells [7]; +500 μM NADH alone): 94.6%
- % SURVIVAL (V79 cells [9]): 100%
